Measured values reported in US12721831B2, “Tetrahydrocurcuminoid-metal complexes, manufacturing methods thereof, and uses thereof” (Probioticsmart, LLC, priority 2020, dated 2026).

Legend:
[1] = tested on: influenza varieties; settings: laboratory cells infected with influenza varieties; cited from earlier work
[2] = 1 gram oral, chicken serum, 280 nm and 425 nm
Method: Three chickens (Rhode Island Red) that were each 2 years old weighing 5 pounds were selected, and 1 ml of blood was removed from the wing vein for baseline measurements. The blood was allowed to clot and the plasma was removed by centrifugation for subsequent baseline analysis. The chickens were allowed to rest overnight. The contents of each of the respective syringes were then administered to separate chickens via the mouth, ensuring that the contents were consumed. Blood was removed at 2, 4, and 24 hours from each bird and allowed to clot.

[3] = cited from earlier work
[4] = DPPH radical scavenging antioxidant assay; assay type: biochemical; settings: 0.125-0.50 mg/mL in ethanol, 30 min at RT, 517 nm; ranking among the three
Method: The reaction mixture was mixed thoroughly and left in the dark at RT for 30 min. The absorbance of the mixture was measured spectrophotometrically at 517 nm. Trolox was used as reference. Percentage DPPH radical scavenging activity was calculated by the following equation:
[formula] • Acs: Blank 1—Blank 2 • As: Absorbance of samples—Blank 2 Then % of inhibition was plotted against concentration.

COc1cc(/C=C/C(=O)CC(=O)/C=C/c2ccc(O)c(OC)c2)ccc1O [curcumin]
reduction of viral replication [1]: over 90%

COc1cc(CCC(=O)CC(=O)CCc2ccc(O)c(OC)c2)ccc1O [tetrahydrocurcumin]
HPLC peaks in serum at the 2-hour, 4-hour, and 24-hour timepoints [2]: could be seen
water solubility [3]: not very water soluble
antioxidant activity (DPPH radical scavenging, FIG. 16) [4]: higher antioxidant activity than curcumin but less than the tetrahydrocurcumin-Zn-curcumin
